Read-outs that look alike come from different tables or passages of the source.

The target in one assay is T1, hM3R (Homo sapiens, UniProt P20309).
T1 construct: host or cells: CHO cells, stably transfected; crude membranes
As to the kind of experiment: hM3R radioligand binding ([3H]NMS, CHO cell membranes). How it is done:
(§1) To clearly explain the obtained outcome, we engaged the radioligand binding experiment. The hM1–hM5 radioligand binding experiments were performed in the membrane fractions of Chinese hamster ovary cells (CHO) stably expressing human variants of muscarinic receptors. N-[^3H]Methylscopolamine was used as the radiolabeled ligand.[39] Three compounds were selected from ex vivo screening on guinea pig ileum. […] This compound is also not completely selective for the remaining muscarinic receptor subtypes with −log Ki values over 6. […] It is also a potent muscarinic M1R antagonist, and the M1R/M2R selectivity ratio is <10. It is worth noting that such nonspecific anticholinergics are often associated with neuropsychiatric and cognitive disturbances and that nonselective muscarinic M1R/M2R antagonists, such as scopolamine, can produce cognitive deficits. Further structural modifications of ADS10227 should be used to increase selectivity toward the M2R, as these may present fewer potential side effects associated with the activation of the phospholipase C signaling pathway.
(§2) The culture was derived from CHO cells stably transfected with the genes of human variants of muscarinic receptors. These were purchased from Missouri S&T cDNA Resource Center (Rolla, MO, USA). Cell cultures and crude membranes were prepared as described previously.[45] […]
(§3) All radioligand binding experiments were optimized and carried out according to general guidelines.[39] […] N-Methylscopolamine binding was measured directly in saturation experiments using six concentrations (30–1000 pM) of [^3H]NMS during incubation for 1 h (M2R), 3 h (M1R, M3R, and M4R), or 5 h (M5R). For calculations of the equilibrium dissociation constant (KD), concentrations of free [^3H]NMS were calculated by subtraction of bound radioactivity from total radioactivity in the sample and fitting eq 1 (Experimental Data analysis section). The binding of the tested ligands was determined in competition experiments with 100 pM [^3H]NMS. […] Nonspecific binding was determined in the presence of 1 μM unlabeled atropine. […]

Another assay addresses T2, hM2R (Homo sapiens, UniProt P08172).
T2 construct: host or cells: CHO cells, stably transfected; crude membranes
T2 sequence (P08172 1-466): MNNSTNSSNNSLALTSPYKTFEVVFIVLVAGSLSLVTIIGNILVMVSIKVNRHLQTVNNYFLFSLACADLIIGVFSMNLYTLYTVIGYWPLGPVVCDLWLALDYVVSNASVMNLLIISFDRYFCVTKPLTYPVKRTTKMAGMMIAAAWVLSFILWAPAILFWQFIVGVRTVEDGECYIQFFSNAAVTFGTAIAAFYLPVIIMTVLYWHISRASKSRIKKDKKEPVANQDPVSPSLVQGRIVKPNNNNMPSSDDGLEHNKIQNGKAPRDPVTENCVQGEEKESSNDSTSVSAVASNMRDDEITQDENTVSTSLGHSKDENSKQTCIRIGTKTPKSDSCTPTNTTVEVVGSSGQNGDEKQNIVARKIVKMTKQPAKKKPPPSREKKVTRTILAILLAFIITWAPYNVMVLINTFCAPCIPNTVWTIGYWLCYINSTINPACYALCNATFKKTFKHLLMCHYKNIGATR
As to the kind of experiment: hM2R radioligand binding ([3H]NMS, CHO cell membranes). How it is done:
as §1
The culture was derived from CHO cells stably transfected with the genes of human variants of muscarinic receptors. These were purchased from Missouri S&T cDNA Resource Center (Rolla, MO, USA). Cell cultures and crude membranes were prepared as described previously.[45] The cells were grown to confluence in 75 cm^2 flasks in Dulbecco’s modified Eagle’s medium (DMEM) supplemented with 10% fetal bovine serum, and 2 million cells were subcultured to 100 mm Petri dishes. The medium was supplemented with 5 mM butyrate for the last 24 h of cultivation to increase receptor expression. Cells were detached by mild trypsinization on day 5 after subculture. Detached cells were washed twice in 50 mL of phosphate-buffered saline and 3 min centrifugation at 250g. […]
as §3

Another assay concerns the target T3, hM4R (Homo sapiens, UniProt P08173).
T3 construct: host or cells: CHO cells, stably transfected; crude membranes
T3 sequence (P08173 1-479): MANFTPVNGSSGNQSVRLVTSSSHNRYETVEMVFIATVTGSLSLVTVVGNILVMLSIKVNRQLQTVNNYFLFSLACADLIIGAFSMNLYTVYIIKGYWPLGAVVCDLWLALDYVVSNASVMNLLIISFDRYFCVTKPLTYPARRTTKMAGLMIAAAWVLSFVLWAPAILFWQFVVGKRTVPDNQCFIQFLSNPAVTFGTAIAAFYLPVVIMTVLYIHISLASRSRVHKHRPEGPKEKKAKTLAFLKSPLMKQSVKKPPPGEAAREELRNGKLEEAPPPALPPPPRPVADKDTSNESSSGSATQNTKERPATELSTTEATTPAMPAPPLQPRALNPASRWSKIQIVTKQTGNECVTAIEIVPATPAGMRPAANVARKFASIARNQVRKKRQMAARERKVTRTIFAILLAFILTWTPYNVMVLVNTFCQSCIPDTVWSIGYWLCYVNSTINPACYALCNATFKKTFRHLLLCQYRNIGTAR
Briefly: hM4R radioligand binding ([3H]NMS, CHO cell membranes). The protocol:
as §1, §2, §3

Setting [1] is: read-out: hM3R -log(Ki) ± sem (converted).

T1 sequence (P20309 whole entry): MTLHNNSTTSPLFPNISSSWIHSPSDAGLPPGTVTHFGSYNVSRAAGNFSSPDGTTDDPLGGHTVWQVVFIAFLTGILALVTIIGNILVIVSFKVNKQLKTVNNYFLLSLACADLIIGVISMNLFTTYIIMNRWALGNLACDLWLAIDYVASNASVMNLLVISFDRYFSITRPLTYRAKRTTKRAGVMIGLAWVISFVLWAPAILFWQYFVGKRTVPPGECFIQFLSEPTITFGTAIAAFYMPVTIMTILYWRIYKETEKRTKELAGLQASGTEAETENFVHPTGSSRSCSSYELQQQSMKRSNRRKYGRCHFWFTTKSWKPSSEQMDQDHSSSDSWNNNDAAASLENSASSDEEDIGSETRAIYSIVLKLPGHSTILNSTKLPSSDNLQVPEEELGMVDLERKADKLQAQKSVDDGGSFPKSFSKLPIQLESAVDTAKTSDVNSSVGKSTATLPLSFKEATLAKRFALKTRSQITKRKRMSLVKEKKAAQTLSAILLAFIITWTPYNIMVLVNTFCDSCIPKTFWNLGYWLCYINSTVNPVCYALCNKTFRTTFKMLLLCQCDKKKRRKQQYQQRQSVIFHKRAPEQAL

With `N=C(N)N(CCCCN1CCN(CCCCCCCOc2ccccc2)CC1)Cc1ccccc1` [ADS1017], the Ki (as a rule, the equilibrium dissociation constant of an inhibitor or competing ligand from its target) on hM3R (hM3R -log(Ki) ± sem) is 347 nM; at hM2R, 37.2 nM; on hM4R, 68 nM.

Consider `N=C(N)N(CCCCN1CCN(C[C@H]2CC[C@@H](COc3ccccc3)CC2)CC1)Cc1ccccc1` [ADS10227, 1-{4-{4-{[4-(phenoxymethyl)cyclohexyl]methyl}piperazin-1-yl}but-1-yl}-1-(benzyl)guanidine], for which the Ki on hM3R (setting [1]) is 51.3 nM; on hM2R ([3H]NMS, CHO membranes, read-out: hM2R -log(Ki) ± sem (converted)) it was 2.82 nM; on hM4R ([3H]NMS, CHO membranes, read-out: affinity to hM4R (Ki)), 5.1 nM. The M1R/M2R selectivity ratio on hM2R (from hM1R and hM2R binding) is on record as under 10.

With `[H]/N=C(/N)N(CCCCN1CCN(CC2CCC(COc3ccccc3)CC2)CC1)Cc1ccc(C(F)(F)F)cc1` (stereo not shown) [ADS10239], the Ki at hM3R (setting [1]) is 123 nM; at hM2R ([3H]NMS, CHO membranes, read-out: affinity to hM2R (Ki)), 52 nM; on hM4R ([3H]NMS, CHO membranes, read-out: hM4R -log(Ki) ± sem (converted)), 15.1 nM.

The values above are taken from publication PMC8291587, “Guanidine Derivatives: How Simple Structural Modification of Histamine H3R Antagonists Has Led to the Discovery of Potent Muscarinic M2R/M4R Antagonists” (ACS Chemical Neuroscience, 2021).
